Patent publication US10858415B2, “Peptide mimotopes of claudin 18.2 and uses thereof” (BioNTech AG, priority 2014, dated 2020)

How the values were obtained:
IMAB362 [1] = assay: Peptide microarray incubation with IMAB362; assay type: binding; conditions: IMAB362 1 μg/ml; percentage of fluorescence assay signal of the hit peptide
Method: Peptides were synthesized and printed on peptidemicroarray slides essentially as described previously [Funkner, A. et al., J. Mol. Biol. 2013, 425, 1340-1362]. In brief, the peptides were synthesized using SPOT synthesis [Wenschuh, H. et al., Biopolymers 2000, 55, 188-206] cleaved from the solid support and cyclized (50% DMSO, PBS buffer pH 7-8, RT, 16 hours). Subsequently, all peptides were chemoselectively immobilized on functionalized glass slides as described earlier [Funkner, A. et al., J. Mol. Biol. 2013, 425, 1340-1362]. Each peptide was deposited on the microarray in triplicates.
The microarrays were incubated with 1.0 or 0.1 μg/ml IMAB362 in an HS 4800 microarray processing station (Tecan) for two hours at 30° C., followed by incubation with 1.0 μg/ml fluorescently labelled secondary antibody (Alexa647 anti-human Fc antibody; Jackson Immuno Research). Washing steps were performed prior every incubation step with 0.1% Tween-20 in 1×TBS. After the final incubation step the microarrays were washed (0.05% Tween-20 in 0.1×SSC) and dried in a stream of nitrogen. Each microarray was scanned using a GenePix Autoloader 4200AL (Molecular Devices, Pixel size: 10 μm). Signal intensities were evaluated using GenePix Pro 7.0 analysis software (Molecular Devices). For each peptide, the mean of the three triplicates was calculated.
Peptide microarrays were used for structure-activity-relationship (SAR) analysis and optimization of peptide binding affinity to IMAB362. For assay setup three variants of each cyclic hit peptide (sequences 1, 2 and 3, Table 1) were prepared differing in a) the immobilization site, b) the linker nature and c) the degree of conformational restriction (cyclic vs. linear). All peptides were chemically synthesized in a stepwise fashion from the C- to the N-terminus by the high-throughput SPOT synthesis approach [Wenschuh, H. et al., Biopolymers 2000, 55, 188-206] applying a cellulose membrane as solid support. After cleavage and isolation, the peptides were cyclised through disulfide formation between two internal Cys residues and immobilized to the microarray. Covalent attachment to the microarray was performed through a reactive moiety on either the N- or C-terminus of the peptides allowing chemoselective and directed immobilization through both ends of the peptides. Subsequently, peptide loaded microarrays were incubated with 1.0 or 0.1 μg/ml IMAB362 followed by incubation with 1 μg/ml fluorescently labelled secondary antibody, scanning and data evaluation.
Target sequence in this assay (as listed by the source): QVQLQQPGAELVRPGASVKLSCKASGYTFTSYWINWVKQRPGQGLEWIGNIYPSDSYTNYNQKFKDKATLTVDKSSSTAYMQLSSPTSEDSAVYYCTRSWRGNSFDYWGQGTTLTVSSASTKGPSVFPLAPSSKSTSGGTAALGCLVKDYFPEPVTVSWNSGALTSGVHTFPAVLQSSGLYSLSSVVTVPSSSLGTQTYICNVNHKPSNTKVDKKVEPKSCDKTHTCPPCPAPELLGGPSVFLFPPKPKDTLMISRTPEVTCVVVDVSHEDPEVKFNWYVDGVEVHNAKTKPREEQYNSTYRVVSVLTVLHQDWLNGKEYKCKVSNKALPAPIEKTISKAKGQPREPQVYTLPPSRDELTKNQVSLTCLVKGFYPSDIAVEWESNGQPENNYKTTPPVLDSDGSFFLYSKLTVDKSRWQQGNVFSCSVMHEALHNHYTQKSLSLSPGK
Target sequence in this assay (as listed by the source): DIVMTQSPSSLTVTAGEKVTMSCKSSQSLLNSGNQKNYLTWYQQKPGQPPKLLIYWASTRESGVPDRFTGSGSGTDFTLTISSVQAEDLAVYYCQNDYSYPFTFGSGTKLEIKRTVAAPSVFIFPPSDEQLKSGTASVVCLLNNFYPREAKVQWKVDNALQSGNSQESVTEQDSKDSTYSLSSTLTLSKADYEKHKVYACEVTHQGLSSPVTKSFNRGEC

IMAB362 [2] = assay: Peptide ELISA, biotinylated peptides on streptavidin plates; assay type: binding
Method: For the detection of IMAB362, the CLDN18.2 mimicking peptides were immobilized on streptavidin plates (Nunc) in a concentration of 0.75 μg/ml in PBS buffer for 1 hour at 37° C. Subsequently, the plate was washed three times with washing buffer (0.01% Tween-20 in PBS buffer) before it was blocked with 3% BSA in PBS overnight at 4° C. To detect IMAB362, the blocked plate was washed again three times with washing buffer followed by the addition of IMAB362 and incubation for 30 min at 37° C. After another washing step, it was incubated with an alkaline phosphatase conjugated anti-human Fc antibody (Jackson Immuno Research) for additional 30 min at 37° C. Finally, the plate was washed again before being incubated with 1.5 mg/ml of the substrate PNPP (para-nitrophenyl phosphate) in appropriate substrate buffer (1 M Diethanolamine, 0.05 mM MgCl2, 0.01% sodium azide, pH 9.8) for 30 min at RT in the dark. 3 M KOH was used to stop the enzymatic reaction. Absorbance was measured with a microplate reader (Infinite M200, Tecan). For dual wavelength analysis, 405 nm was chosen as measurement wavelength and 492 nm as reference wavelength. Absorbance values were calculated by subtraction of the measured values for the reference wavelength and for the measurement wavelength. Calculation of apparent KD values was done by fitting the data with Sigma Plot 10 using a two-site saturation binding model. […]

[3] = test system: advanced gastro-esophageal cancer; conditions: multiply pre-treated late-stage patients, single agent; cited from earlier work
[4] = In vivo pharmacokinetic analysis, serum measured by peptide ELISA with 2c mimotope peptide; conditions: approximately 50 mg/kg intravenously, Balb/cJ mice
Method: After 8, 24, 48, 72, 144, 168 and 192 hrs, blood samples were taken from two mice of each group for serum preparation. The serum samples were to be measured in the linear range of the assay (approximately 0.3-300 ng/ml). […] An IMAB362 standard row in presence of murine Balb/cJ control serum was assayed in parallel (0-25 ng/ml). The standard raw data were fitted by linear regression to calculate the antibody concentration from the mouse samples at the respective timepoint. Before the pharmakokinetic analysis, a permission for the animal experiment was obtained from the relevant local authority.

Row | Compound | % Affinity compared to hit peptide (IMAB362 [1]) [%] | further results
1 | ACHYSYPGVCG [X-Ttds-Linearpeptide Seq. 2] | 0 | 
2 | ACHLNYPGYCG [Cyclopeptide-GGS-K(X) Seq. 1] | 100 | 
3 | ACHYSYPGVCG [Cyclopeptide-GGS-K(X) Seq. 2] | 100 | 
4 | ACHLGYPGRCG [Cyclopeptide-GGS-K(X) Seq. 3] | 100 | 
5 | ACHLGYPGRCG [X-Ttds-Linearpeptide Seq. 3] | 0.1 | 
6 | ACHLNYPGYCG [X-Ttds-Linearpeptide Seq. 1] | 0 | 
7 | CC(C)[C@@H]1NC(=O)CNC(=O)[C@@H]2CCCN2C(=O)[C@H](Cc2ccc(O)cc2)NC(=O)CNC(=O)[C@H](Cc2ccc(O)cc2)NC(=O)[C@H](Cc2c[nH]cn2)NC(=O)[C@@H](NC(=O)[C@H](C)NC(=O)CCC(=O)NCCCOCCOCCOCCCNC(=O)CCCC[C@@H]2SC[C@@H]3NC(=O)N[C@@H]32)CSSC[C@@H](C(=O)NCC(=O)O)NC1=O [Peptide 2c] |  | binding curves of IMAB362 to peptide when antibody diluted with human serum (IMAB362 [2]; up to 20% human serum, background signal slightly increased at high serum concentrations): looked similar; binding of IMAB362 to peptide in the presence of mouse serum (IMAB362 [2]; up to 20% mouse serum): almost not affected
8 | IMAB362: highly tumor-specific monoclonal IgG1 antibody directed against Claudin 18 isoform 2 (CLDN18.2) |  | antitumoral activity [3]: antitumoral activity; tolerability [3]: have shown tolerability; IMAB362 concentration in mice ([4]; after 8 hours): approximately 800 μg/ml; IMAB362 concentration in mice ([4]; at the end of the study (192 hrs)): approximately 350 μg/ml
